Experiment: in vitro
Details: human, hela cells, % viability

Q: For `Cc1noc(C)c1NC(=O)N(Cc1ccccc1C(F)(F)F)C1CCC(N)CC1` (centres unmarked) [CBK045963C], which viability at 28.5 h, 10 µM is on record?
A: 103%

Q: With `Cc1ccc(S(=O)(=O)N2CCC(C(=O)O)CC2)cc1C(=O)O` [CBK266636] as the compound, how does the viability at 28.5 h, 10 µM read?
A: 99.6%

Q: Which viability at 28.5 h, 10 µM does the source give for `CCNC(=O)Nc1ncc(-c2ccccc2)c2cccnc12` [CBK070624] here?
A: 95.3%

Q: With `O=C(NN1C(=O)c2ccccc2C1=O)c1cc(C(=O)NN2C(=O)c3ccccc3C2=O)cc(N2C(=O)c3ccccc3C2=O)c1` [CBK262100] as the compound, how does the viability at 28.5 h, 10 µM read?
A: 88.2%

Q: With `CC(C)C(=O)N[C@H]1CC[C@]2(CC1)CNC(=O)c1ccccc1O2` [CBK281675] as the compound, how does the viability at 28.5 h, 10 µM read?
A: 103%

Q: With `COc1ccc(S(=O)(=O)N(C)c2ccc(C(=O)NCc3ccccn3)cc2)cc1` [CBK269099] as the compound, how does the viability at 28.5 h, 10 µM read?
A: 88.1%

Q: Which viability at 28.5 h, 10 µM does the source give for `Cc1c(C(=O)O)cccc1N1C(=O)c2ccc([N+](=O)[O-])cc2C1=O` [CBK262724] here?
A: 99.9%

Q: For `Cc1nc(C2CCCC2)cc([C@H]2CN3CC[C@H]2C[C@@H]3CNS(C)(=O)=O)n1` [CBK289121], which viability at 28.5 h, 10 µM is on record?
A: 87.6%

Q: Which viability at 28.5 h, 10 µM does the source give for `N#Cc1c(NC(=O)CN2CCCCC2)sc2c1CCCC2` [CBK261619] here?
A: 89.6%

Q: For `CCOc1ccc(-n2c(SC/C=C/c3ccccc3)nnc2-c2cccnc2)cc1` [CBK266222], which viability at 28.5 h, 10 µM is on record?
A: 106%

Q: Which viability at 28.5 h, 10 µM does the source give for `COc1ccc(C(=O)NNS(=O)(=O)N(C)C)cc1OC` [CBK267697] here?
A: 99.1%

Q: For `COCc1cc(C)nc2sc(C(N)=O)c(N)c12` [CBK018149], which viability at 28.5 h, 10 µM is on record?
A: 93%

Q: Which viability at 28.5 h, 10 µM does the source give for `CN(C)c1cccc(Nc2ccc(-c3cccc(C(=O)O)c3)cn2)c1` [CBK036879] here?
A: 101%

Q: Which viability at 28.5 h, 10 µM does the source give for `Cc1cc(NCC2CCCO2)n2nc(C)c(-c3ccccc3)c2n1` (centres unmarked) [CBK304531] here?
A: 90.5%

Q: For `O=C(NCc1nnc(-c2cccs2)o1)c1cccc(Cl)c1` [CBK284633], which viability at 28.5 h, 10 µM is on record?
A: 95.6%

Q: For `Cc1cccc(=O)n1CCCn1cnc2nccnc2c1=O` [CBK307186], which viability at 28.5 h, 10 µM is on record?
A: 116%

Q: Which viability at 28.5 h, 10 µM does the source give for `O=C(Nc1ccc(-c2noc(COc3ccc(Br)cc3)n2)cc1)c1ccc2c(c1)OCO2` [CBK266692] here?
A: 97.2%

Q: For `Cn1c(=O)[nH]c(=O)c2c1nc(CN1CCOCC1)n2Cc1c(F)cccc1Cl` [CBK270085], which viability at 28.5 h, 10 µM is on record?
A: 90.5%

Q: Which viability at 28.5 h, 10 µM does the source give for `CC(C)(C)NC(=O)Cn1cncc1-c1[nH]c2ccccc2c1Cl` [CBK281981] here?
A: 105%

Q: Which viability at 28.5 h, 10 µM does the source give for `C=CCOc1ccc(C(=O)C2=C(O)C(=O)N(Cc3cccnc3)C2c2cccnc2)cc1` (centres unmarked) [CBK265167] here?
A: 98%

Q: Which viability at 28.5 h, 10 µM does the source give for `Cc1cc(C)c(C)c(OCC(=O)N(Cc2nc(-c3ccccc3)no2)C2CCCCC2)c1` [CBK268974] here?
A: 104%

Q: For `COc1ccc(NS(=O)(=O)c2ccc3c(c2)N(CC(=O)O)C(=O)CO3)cc1NS(C)(=O)=O` [CBK297745], which viability at 28.5 h, 10 µM is on record?
A: 90.1%

Q: For `Cc1sc2ncnc(NCCOCCO)c2c1C` [CBK265907], which viability at 28.5 h, 10 µM is on record?
A: 104%

Q: With `COC(=O)c1cc(S(=O)(=O)N2c3ccccc3CC2C)cn1C` (centres unmarked) [CBK304384] as the compound, how does the viability at 28.5 h, 10 µM read?
A: 81.4%

Q: With `O=c1c2nnc3ncnn3c2ccn1-c1ccccc1` [CBK288075] as the compound, how does the viability at 28.5 h, 10 µM read?
A: 99.5%

Q: Which viability at 28.5 h, 10 µM does the source give for `COc1ccc2[nH]cc(CC(=O)Nc3cc(C)nc4ccccc34)c2c1` [CBK122732] here?
A: 88.8%

Q: With `CC(NC(=O)c1cnc2n(c1=O)CCS2)c1ccccc1` (centres unmarked) [CBK287372] as the compound, how does the viability at 28.5 h, 10 µM read?
A: 103%

Q: For `N#Cc1nccnc1N1CCN(Cc2ccc3c(c2)OCO3)CC1` [CBK011284], which viability at 28.5 h, 10 µM is on record?
A: 83.3%

Q: With `O=C(CN1C2CCC1CC(O)(c1ccccc1F)C2)NCC1CC1` (centres unmarked) [CBK281942] as the compound, how does the viability at 28.5 h, 10 µM read?
A: 93.4%

Q: Which viability at 28.5 h, 10 µM does the source give for `Cc1cc(OCCCNCCO)ccc1Cl` [CBK262230] here?
A: 95.4%

Q: Which viability at 28.5 h, 10 µM does the source give for `COc1ccc(-c2cc(C3CCCCCN3)no2)cc1` (centres unmarked) [CBK285399] here?
A: 96.5%

Q: For `CN1CCN(C(=O)CNS(=O)(=O)c2cc(F)c(Br)cc2F)CC1` [CBK034481], which viability at 28.5 h, 10 µM is on record?
A: 99.5%

Q: For `Cc1ccc(S(=O)(=O)NCC(=O)Nc2ccc(Cl)nc2)cc1` [CBK091355], which viability at 28.5 h, 10 µM is on record?
A: 96.1%

Q: Which viability at 28.5 h, 10 µM does the source give for `CN(C)CCCNC(=O)C1CCN(c2cncc(-c3ccc(O)cc3)n2)CC1` [CBK126929T] here?
A: 94.1%

Same assay, conditions: human, hela cells, % viability, bulk resorufin, single well

Q: For `CNC(Cc1ccccc1)c1ccccc1OC` (centres unmarked) [CBK011943C], which viability at 28.5 h, 10 µM is on record?
A: 88.6%
